Where two headings read alike, the source gives them in different places.
Experiments:
rat small intestine = experiment: In situ closed-loop (Doluisio) intestinal perfusion; type: in vivo; conditions: 100 µM, n = 4
Description: The animal experiments, performed on 250–300 g male Wistar rats, were designed following the guidelines described in EC Directive 86/609, Council of the Europe Convention ETS 123 and Spanish national laws about the use of animals in research, and were approved by the Spanish Committee (Spain, code A1330354541263).
The “closed-loop” in situ perfusion method, based on the Doluisio technique, was performed according to published reports. Briefly, in anesthetized rats in which an abdominal incision was made, the small intestine was located and the bile duct was ligated avoiding enterohepatic circulation of the drug. The procedure for making three loops in the duodenum, jejunum, and ileum was the same as previously described. Intestinal contents were removed by washing with physiological solutions and the peritoneal cavity was covered with cotton wool pads to prevent evaporation of peritoneal fluid and loss of body heat.
A solution of JM-20 (100 µM) was perfused with one syringe, and 5 min later the sample was collected with the other syringe. This procedure was performed alternatively for 30 min to ensure mixing of the solution in the lumen of small intestine. Samples were immediately analyzed for JM-20 at maximum wavelengths (λmax = 262 nm) by HPLC (Alliance-Waters 2695) using a Nova-Pak C18 column (4 μM, 3.9 × 150 mm) and UV detector (Waters 2487). The analytical procedure was as follows previously validated. The exact length of the intestine was determined at the end of the study.
The calculation of permeability takes into account that water flux during the experiment can be significant, the drug concentration in each sample was modified according to the following Equation (3):(3) C=CeVT/V0 where Ct represents the concentration without water reabsorption at time t, Ce is the experimental concentration value, V0 is the initial volume and Vt is the final volume. The coefficient of absorption rate (ka) and the initial concentration of JM-20 available for absorption (C0) were determined by non-linear regression of the following Equation (4):(4) Ct=C0·e^−kat […]

[1] = Apparent permeability across Caco-2 monolayers; type: in vitro ADME; conditions: human
Description: MDCK (Madin–Darby Canine Kidney) cells, their transfected clone MDCK-MDR1, and Caco-2 cells were grown in the modified Dulbecco Eagle medium added with L-glutamine, fetal bovine serum and penicillin−streptomycin. The number of cells seeded in transwells with a surface area of 4.2 cm^2 depended on the cell line: 250,000 cells/cm^2 for MDCK and Caco-2 and 150,000 cells/cm^2 for MDCK-MDR1. Experiments were performed between 7 and 9 days for MDCK and MDCK-MDR1 and between 19 and 21 for Caco-2 cells after seeding. Prior to drug placement, cell monolayer integrity was assessed by measuring transepithelial electrical resistance (TEER). Transport studies were performed on an orbital shaker at 37 °C and 50 rpm. Four samples of 200 μL were taken from the receptor side at 0, 15, 30, 60 and 90 min, and two samples from the donor compartment at the beginning and end of the experiment. A standard experiment was performed with the same buffer for the apical and basolateral compartments in the apical to basolateral (A-B) and basolateral to apical (B-A) directions. The drug concentration was 100 μM in all experiments and samples were analyzed immediately by HPLC. The retention time was 2.3 min at maximum wavelengths (λmax = 260 nm). The conditions used for HPLC analyses were: mobile phase composed of a mixture of 50% H2O (95% H2O + 0.5% trifluoroacetic) and another 50% HPLC-grade methanol. The stationary phase composed of a Phenomenex® KJ0-4282 column, with two 2 μm filters filled with C-18 microparticles of 40 μm size and a Nova Pak C-18 stainless-steel column of 150 mm length. […] The lower limit of quantitation of JM-20 was adequate to interpolate the values obtained in the samples.
The apparent permeability coefficient was calculated according to the following Equation (2):(2) Creceiver,t=Qtotal/Vreceiver+Vdonor+Creceiver,t−1·f−Qtotal/Vreceiver+Vdonor·e^−Peff0,1·S·1/Vreceiver+1/Vdonor·Δt where Creceiver,t is the concentration of the drug in the receiver compartment at the time t, Qtotal is the total amount of drug in receiver and donor chambers, Vreceiver and Vdonor are the volumes of receiver and donor chamber, respectively, Creceiver,t−1 is the concentration of the drug in receiver compartment at the previous time, f is the replacement dilution factor of the sample, S is the surface area of the monolayer, Δt is the time interval and Peff is the coefficient of permeability, as was described by Mangas-Sanjuan et al. All calculations were developed in Microsoft® Excel (2018).

[2] = Refinement of intrinsic and salt solubility with pDISOL-X
Source text: To develop a solution speciation model, the experimental data of log S—pH were used as input into the computer program pDISOL-X [30]. The computational algorithm considers the contributions of all species present in solution, including all buffer components. The program derives its own implicit solubility equations internally, given any practical number of equilibria and estimated constants. The equilibrium constants are subsequently refined by weighted nonlinear least-squares regression. The method can test for the presence of specific buffer drug species. The program assumes an initial condition of a suspension of the solid drug in a solution, ideally with the suspension saturated over a wide range of pH. The software calculates the species distribution as a consequence of a sequence of additions of standardized strong-acid titrant HCl to simulate the suspension pH-speciation down to pH ~ 0, the staging point for the subsequent operation. […] The ionic strength is rigorously calculated at each step, and pKa values (as well as the solubility products and the aggregation and complexation constants) are adjusted accordingly. At the end of the pH-speciation simulation, the calculated log S vs. pH curve is compared to log S vs. pH measured. A log S-weighted nonlinear least squares refinement begins to refine the proposed equilibrium model, using analytical expressions for the differential equations. The process is repeated until the differences between calculated and measured log S values reach a minimum.

Compound: CCOC(=O)C1=C(C)NC2=C(C=Nc3ccccc3N2)C1c1ccccc1[N+](=O)[O-] (centres unmarked) [JM-20, 3-ethoxycarbonyl-2-methyl-4-(2-nitrophenyl)-4,11-dihydro-1H-pyrido [2,3-b][1,5] benzodiazepine]
- Peff ± SD (rat small intestine; Duodenum): 9.20 ± 0.89 ×10^−5 cm/s
- Peff ± SD (rat small intestine; Ileum): 6.82 ± 1.44 ×10^−5 cm/s
- Peff ± SD (rat small intestine; Jejunum): 6.63 ± 1.30 ×10^−5 cm/s
- Papp A→B at 90 min, 100 µM ([1]; Caco-2, Caco-2, 100 μM, 37 °C, stirring at 50 rpm): 38.3 ± 1.8 ×10⁻⁶ cm/s
- Papp at 90 min, 100 µM ([1]; Caco-2, read-out: Permeability, Caco-2 value (abstract)): 38 ×10⁻⁶ cm/s
- Papp B→A at 90 min, 100 µM ([1]; Caco-2, 100 μM, 37 °C, stirring at 50 rpm): 8.5 ± 2.4 ×10⁻⁶ cm/s
- efflux ratio at 90 min, 100 µM ([1]; Caco-2 bidirectional transport): 0.13
- solubility ([2]; 37 °C, read-out: So, intrinsic solubility calculated by pDISOL-X): 12 µg/mL
- solubility ([2]; aqueous buffer, pH 3.5, 37 °C, read-out: Solubility calculated by pDISOL-X): 14.3 µg/mL
- solubility ([2]; aqueous buffer, pH 4.0, 37 °C, read-out: Solubility calculated by pDISOL-X): 18.9 µg/mL
- solubility ([2]; aqueous buffer, pH 4.5, 37 °C, read-out: Solubility calculated by pDISOL-X): 74.9 µg/mL
- solubility ([2]; aqueous buffer, pH 6.8, 37 °C, read-out: Solubility calculated by pDISOL-X): 12.5 µg/mL
- solubility ([2]; aqueous buffer, pH 7.4, 37 °C, read-out: Solubility calculated by pDISOL-X): 11.9 µg/mL
- solubility ([2]; pH 1.2, 37 °C, read-out: Solubility calculated by pDISOL-X): 3.3 µg/mL
